How the values were obtained:
Vero cells = assay: Cytotoxicity against Vero cells; assay type: cell-based
[1] = Metabolic stability in mouse liver microsomes; assay type: in vitro ADME; conditions: for Qp,h (percentage ratio of predicted clearance over plasma flow): well-stirred model; for half-life: mouse, liver microsomes

| Compound | selectivity index (SI) (Vero cells; IC50 Vero cells over MICMABA, repeat testing) | toxicity toward Vero cells from the HTS studies (Vero cells; initial HTS study, before repeat testing) [µm] | Qp,h (percentage ratio of predicted clearance over plasma flow) ([1]; mouse liver microsomes) [%] | half-life [1] [min] | Half life ([1]; mouse liver microsomes, 30 min incubation) |
| --- | --- | --- | --- | --- | --- |
| Cc1c(Cc2ccc(Cl)cc2)c(=O)n2c([nH]c3ccccc32)c1C#N [3a, 2-(4-Chlorobenzyl)-3-methyl-1-oxo-1H,5H-pyrido[1,2-a]benzimidazole-4-carbonitrile] | 16 | > 100 | 95.4 | 6.5 |  |
| Cc1c(Cc2cccc(C(F)(F)F)c2)c(=O)n2c([nH]c3ccccc32)c1C#N [3d, 3-Methyl-1-oxo-2-[3-(trifluoromethyl)benzyl]-1H,5H-pyrido[1,2-a]-benzimidazole-4-carbonitrile] |  |  | 90.0 | 15 |  |
| COc1cccc(Cc2c(C)c(C#N)c3[nH]c4ccccc4n3c2=O)c1 [3e, 3-Methyl-2-(3-methoxybenzyl)-1-oxo-1H,5H-pyrido[1,2-a]benzimidazole-4-carbonitrile] |  |  | 93.5 | 9.43 |  |
| Cc1c(Cc2ccccc2)c(=O)n2c([nH]c3ccccc32)c1C#N [3v, 2-Benzyl-3-methyl-1-oxo-1H,5H-pyrido[1,2-a]benzimidazole-4-carbonitrile] |  |  | 94.5 | 7.82 |  |
| Cc1c(C)c(=O)n2c([nH]c3ccccc32)c1C#N [3w, 2,3-Dimethyl-1-oxo-1H,5H-pyrido[1,2-a]benzimidazole-4-carbonitrile] |  |  | 72.5 | 51.2 | most stable member of the set of compounds tested |
